Experimental findings from ChEMBL document CHEMBL1134121, “Biphenyls as surrogates of the steroidal backbone. Part 2: discovery of a novel family of non-steroidal 5-alpha-reductase inhibitors” (Bioorg Med Chem Lett, 2001) are described below.

Experiment [1] deals with T1, 3-oxo-5-alpha-steroid 4-dehydrogenase 2 (Homo sapiens) (UniProt P31213).
T1 sequence (whole entry): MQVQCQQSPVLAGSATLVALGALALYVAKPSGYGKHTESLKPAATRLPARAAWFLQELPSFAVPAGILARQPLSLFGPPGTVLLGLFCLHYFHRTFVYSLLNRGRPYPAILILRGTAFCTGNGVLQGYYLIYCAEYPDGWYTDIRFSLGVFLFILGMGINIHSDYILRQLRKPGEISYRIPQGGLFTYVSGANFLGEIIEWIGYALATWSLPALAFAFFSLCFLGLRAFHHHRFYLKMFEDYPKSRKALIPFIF
The experiment in a line: Compound was tested for the inhibition of Steroid 5-alpha-reductase type 2 of human prostates at a concentration of 10e-6 M. It counts as tissue-based. The following applies: Prostate gland.

Experiment [2] concerns the target T2, 3-oxo-5-alpha-steroid 4-dehydrogenase 2 (Homo sapiens, UniProt P31213).
T2 sequence (P31213 whole entry): T1 sequence (whole entry)
The experiment in a line: Compound was tested for the inhibition of type 2 5-alpha-reductase of human prostates. In kind it is tissue-based, Prostate gland.

Experiment [3] concerns the target T2, 3-oxo-5-alpha-steroid 4-dehydrogenase 2. Description: Compound was tested for the inhibition of Steroid 5-alpha-reductase type 2 of human prostates. In kind it is tissue-based, Prostate gland.

SMILES strings stand for the structures.

Consider `CC(C)N(C(=O)c1cc(N)c(-c2ccc(C(=O)O)cc2)c(N)c1)C(C)C`, for which the inhibition in experiment [1] came to 0%. The molecule `CCc1cc(OCC(=O)N(C(C)C)C(C)C)ccc1-c1ccc(C(=O)O)cc1` gave an IC50 in experiment [2] of 2000 nM. As for `CC(C)N(C(=O)COc1ccc(-c2c(F)cc(C(=O)O)cc2F)cc1)C(C)C`, the IC50 in experiment [3] was more than 10000 nM. `CC(C)N(C(=O)COc1ccc(-c2c(Cl)cc(C(=O)O)cc2Cl)cc1)C(C)C` came in with an IC50 in experiment [3] of more than 10000 nM. On the same count and under the same terms, for `Cc1cc(C(=O)O)cc(C)c1-c1ccc(OCC(=O)N(C(C)C)C(C)C)cc1` the value was more than 10000 nM. Still for that read-out and setting: then `CC(C)N(C(=O)COc1ccc(-c2ccc(C(=O)O)cc2C(F)(F)F)cc1)C(C)C`, with 570 nM. `O=C(COc1c(F)cc(-c2ccc(C(=O)O)cc2)cc1[N+](=O)[O-])NC(c1ccccc1)(c1ccccc1)c1ccccc1` showed an IC50 in experiment [2] of 92 nM. In turn, `CC(C)N(C(=O)c1cc(I)c(-c2ccc(C(=O)O)cc2)c([N+](=O)[O-])c1)C(C)C` showed an inhibition in experiment [1] of 0%.

Take `CC(C)N(C(=O)COc1c(F)cc(-c2ccc(C(=O)O)cc2)cc1[N+](=O)[O-])C(C)C`: in experiment [2], the IC50 is 9.8 nM. That is a single-digit nanomolar value. Consider `CC(C)N(C(=O)[C@H]1CC[C@H]2[C@@H]3CCc4cc(C(=O)O)ccc4[C@H]3CC[C@]12C)C(C)C`, for which it took 2.1 nM to reach half-maximal inhibition in experiment [2] (IC50). Against the preceding molecule, the IC50 is about 4.7-fold lower.

Consider `CC(C)N(C(=O)c1cc(Br)c(-c2ccc(C(=O)O)cc2)c(Br)c1)C(C)C`, for which, in experiment [1], the inhibition was found to be 0%. For `CC(C)N(C(=O)Cc1ccc(-c2ccc(C(=O)O)cc2)cc1)C(C)C`, in experiment [1], the inhibition turned out to be 37%.

In turn, `CC(C)N(C(=O)c1cc(I)c(-c2ccc(C(=O)O)cc2)c(I)c1)C(C)C` came in with an inhibition in experiment [1] of 0%. Regarding `CC(C)N(C(=O)COc1ccc(-c2ccc(C(=O)O)cc2)cc1)C(C)C`, in experiment [1], the inhibition was 57.5%. The molecule further yielded an IC50 in experiment [3] of 830 nM. With `CC(C)N(C(=O)COc1cc(Cl)c(-c2ccc(C(=O)O)cc2)c(Cl)c1)C(C)C`, the IC50 in experiment [3] is more than 10000 nM. Consider `CC(C)N(C(=O)c1ccc(-c2ccc(C(=O)O)cc2)cc1)C(C)C`, for which, in experiment [1], the inhibition is 32.5%.

In experiment [3], `CC(C)c1cc(-c2ccc(C(=O)O)cc2)cc(C(C)C)c1OCC(=O)N(C(C)C)C(C)C` yielded an IC50 of 71 nM.

In experiment [3], `CC(C)N(C(=O)COc1ccc(-c2ccc(C(=O)O)cc2Cl)cc1)C(C)C` registered a 50% inhibitory concentration (IC50) of 870 nM. `CC(C)N(C(=O)c1cc([N+](=O)[O-])c(-c2ccc(C(=O)O)cc2)c([N+](=O)[O-])c1)C(C)C`: the inhibition in experiment [1] was 0%. `CC(C(=O)N(C(C)C)C(C)C)c1ccc(-c2ccc(C(=O)O)cc2)cc1` (stereo not drawn): the inhibition in experiment [1] worked out at 26.9%. `CC(C)N(C(=O)[C@H]1CCC2C3CC[C@H]4NC(=O)CC[C@]4(C)C3CC[C@@]21C)C(C)C` (stereo partly drawn): half-maximal inhibition in experiment [2] (IC50) was put at 41 nM.

`CCc1cc(-c2ccc(C(=O)O)cc2)ccc1OCC(=O)N(C(C)C)C(C)C` displayed an IC50 in experiment [2] of 350 nM.

Broadly, the inhibition is the percentage by which the read-out fell short of the control. A high value points to a strong effect. As a reminder, the IC50 is the concentration that gives 50% inhibition. A higher IC50 goes with a need for much substance.
